Experimental data taken from PMC8047011, “Enantiomers of 2-methylglutamate and 2-methylglutamine selectively impact mouse brain metabolism and behavior” (Scientific Reports, 2021).

How the values were obtained:
[1] = system: kainate nonspecific; test: Nonspecific kainate binding assay; conditions: 100 μM, triplicate; rat
Method: (§1) Nonspecific AMPA, kainate and NMDA binding assays were performed by Eurofins Discovery
(§2) (Cerep) using rat cerebral cortex membranes and radiolabeled [3H]AMPA, [3H]kainic acid and
(§3) [3H]CGP 39653, respectively. […]

[2] = system: C57Bl/6 mice; type: in vivo; conditions: for Distance moved in the novel cage: single dose 100, 300, or 900 mg/kg IP, dose- and time-dependent, P < 0.001
Method: See Supplementary Methods for details.
The lysate was centrifuged (2,500g for 15 min at 4 °C) and the supernatant was assayed using Pierce BCA Protein Assay Kit (23225) using BioTek Epoch plate spectrophotometer by recording absorbance at 562 nm.
Two or three 10 μL aliquots of the homogenate were transferred to a 96 well plate and extracted with 190 μL of 60% acetonitrile in water containing 10 μM GABA-d6 or 10 μM Glu-d5 and Gln-d5 as internal standards. 40 μL aliquots of the extracts were then diluted with 120 μL of acetonitrile and prepared for LC-MS/MS analysis. Brain and serum half-lives were calculated using the ‘PKNCA’ package for R. Endogenous levels of Glu, Gln and GABA were determined in the brains of mice used in the pharmacokinetics experiment. MRM transitions specific for Glu, Gln and GABA were monitored simultaneously.
In vivo animal studies; Maximum Tolerated Dose (MTD) and behavioral studies […]
000664) were group-housed in a Stanford University animal facility with 12:12 hour light/dark cycle ([…]) and had free access to water and food. All behavioral tests were conducted during the animal dark-cycle. […]
Novel Cage Observation: The mouse was dosed and immediately placed in the center of a clean, Innovive disposable rat cage with bedding (dimensions: 17"L x 13.4"W x 7.8"H) and allowed to move freely while being tracked automatically. Mice were monitored with Ethovision XT tracking software for the distance moved and average velocity during the 60-minute trial. […]
Hot plate test: Hot Plate apparatus (IITC Inc. Model 39) was set to 55°C± 0.2. […] Latency time was recorded when hind paw licking or jumping off first occurred.
SHIRPA: The SHIRPA preliminary screen designed by Rogers et al. (1997) was modified and used to assess the general health and behavioral traits of the mice for the initial five minutes after drug administration. […] The test began by placing the mouse in the clear plastic viewing jar for 60 seconds, and the behavioral parameters were monitored and recorded. […]
Behavioral parameters monitored were according to Portmann et al. (2014). […]

[3] = biological target: T1, GABAA α4β3γ2 (Homo sapiens, UniProt P28472+P48169); test: FLIPR functional receptor assay, GABAA α4β3γ2; type: cell-based; conditions: agonist mode; top test concentration 1 mM
T1 construct: host or cells: HEK 293
Method: intensity and lower number of tone and shock (2x) pairings to create a greater opportunity to observe pharmacologic activity.
Receptor functional & binding assays
Functional assays of all GABAA, NMDA (GluN2A–GluN2D) and AMPA (GluA2) receptor subunits were performed by SB Drug Discovery as a part of their CNS discovery panel using FLIPR technology. Briefly, receptor-expressing HEK 293 cell lines were incubated in a red membrane potential dye in HEPES:HBSS pH 7.4 buffer and the fluorescence (λex: 488, λex: 510–570) was monitored over time as the test compounds and/or reference compounds were added to the solution. In agonist assay, only test compounds were added. In positive allosteric modulator assay, cells were preincubated with test compounds and then low concentration (approximately EC20) of an appropriate agonist was added. In antagonist assay, cells were preincubated with test compounds and then high concentration (approximately EC80) of an appropriate agonist was added. For GABAA assays, GABA was used as the agonist, picrotoxin was used as the reference antagonist and allopregnanolone was used as the reference positive allosteric modulator (PAM). […] All compounds were tested at 7 concentration points in triplicate and EC50/IC50 was determined where applicable. […]

[4] = system: NMDA nonspecific; test: Nonspecific NMDA binding assay; conditions: 100 μM, triplicate; rat
Method: as §1, §2, §3

T1 sequence (P48169 36-554): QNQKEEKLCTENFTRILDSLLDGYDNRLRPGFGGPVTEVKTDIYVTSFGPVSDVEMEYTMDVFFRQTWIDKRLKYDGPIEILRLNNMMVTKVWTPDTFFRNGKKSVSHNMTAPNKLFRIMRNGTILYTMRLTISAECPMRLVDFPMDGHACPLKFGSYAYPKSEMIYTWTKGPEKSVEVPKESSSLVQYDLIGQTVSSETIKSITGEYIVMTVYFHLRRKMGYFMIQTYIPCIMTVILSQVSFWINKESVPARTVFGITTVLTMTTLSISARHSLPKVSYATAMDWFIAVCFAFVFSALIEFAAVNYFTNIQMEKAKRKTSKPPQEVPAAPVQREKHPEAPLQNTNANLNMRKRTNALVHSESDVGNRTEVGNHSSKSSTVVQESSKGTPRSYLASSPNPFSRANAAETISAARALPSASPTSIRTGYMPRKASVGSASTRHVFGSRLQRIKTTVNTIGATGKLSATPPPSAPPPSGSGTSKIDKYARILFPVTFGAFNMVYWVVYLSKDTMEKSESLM
T1 sequence (P28472 26-473): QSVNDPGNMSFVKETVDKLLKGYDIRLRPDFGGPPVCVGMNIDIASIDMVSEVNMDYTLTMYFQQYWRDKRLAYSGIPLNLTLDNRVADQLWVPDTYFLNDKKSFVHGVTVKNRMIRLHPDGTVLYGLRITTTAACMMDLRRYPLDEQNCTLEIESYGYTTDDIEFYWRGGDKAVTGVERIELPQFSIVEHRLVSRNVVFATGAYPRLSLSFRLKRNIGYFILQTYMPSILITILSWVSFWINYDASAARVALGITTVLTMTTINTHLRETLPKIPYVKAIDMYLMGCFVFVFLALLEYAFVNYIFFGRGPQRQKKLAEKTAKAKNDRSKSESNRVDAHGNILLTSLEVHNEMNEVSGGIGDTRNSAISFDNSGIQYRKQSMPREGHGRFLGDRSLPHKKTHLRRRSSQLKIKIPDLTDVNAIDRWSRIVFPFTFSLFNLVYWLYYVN
T1 sequence (P18507 40-475 partner): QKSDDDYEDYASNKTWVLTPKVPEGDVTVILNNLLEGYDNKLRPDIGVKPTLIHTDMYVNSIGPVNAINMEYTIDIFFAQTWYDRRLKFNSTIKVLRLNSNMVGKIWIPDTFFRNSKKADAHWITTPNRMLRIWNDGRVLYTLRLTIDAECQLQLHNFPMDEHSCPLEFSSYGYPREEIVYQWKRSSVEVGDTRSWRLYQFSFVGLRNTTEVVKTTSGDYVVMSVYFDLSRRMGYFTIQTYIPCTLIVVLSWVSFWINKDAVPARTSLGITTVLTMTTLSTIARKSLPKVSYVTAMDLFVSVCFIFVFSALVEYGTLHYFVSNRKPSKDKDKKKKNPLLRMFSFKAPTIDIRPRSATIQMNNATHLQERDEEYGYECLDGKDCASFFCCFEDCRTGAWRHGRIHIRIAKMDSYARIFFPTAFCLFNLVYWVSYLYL

| SMILES | % of radioligand binding inhibition, kainate nonspec [1] | Distance moved in the novel cage [2] | EC50 [3] | % of radioligand binding inhibition, NMDA nonspec [4] | Survival after single dose ([2]; male, C57Bl/6, mouse, in vivo) |
| --- | --- | --- | --- | --- | --- |
| C[C@](N)(CCC(=O)O)C(=O)O [(S)-2MeGlu, (S)-2-methylglutamic acid] | 20% | significantly decreased | > 1000 µM | 3% |  |
| C[C@@](N)(CCC(=O)O)C(=O)O [(R)-2MeGlu, (R)-2-methylglutamic acid] | 18% | significantly decreased | > 1000 µM | 8% | Only one mouse died 10 days after 900 mg/kg |
